Test results from paper PMC7463651, “Phase I/Ib Study of Tenalisib (RP6530), a Dual PI3K δ/γ Inhibitor in Patients with Relapsed/Refractory T-Cell Lymphoma” (Cancers, 2020).
Where two headings read alike, the source gives them in different places.

What was measured:
[1] = test system: T-cell leukemia xenograft; parameters: method as in ref 18 = [18]; 18. Mao G. Viswanadha S. Rhizen, Switzerland Unpublished work 2013; conditions: cited from earlier work
[2] = Pharmacokinetic assessments in plasma, phase I/Ib study; format: in vivo, human; conditions: for Fold increase in Cmax: fasting; for AUC(0-inf) / Cmax / AUC / half-life / Tmax / k el: human, plasma, oral; for AUC: read-out: AUC(0-τ); for Tmax: median; for k el: read-out: λz (converted)
Procedure: Complete PK assessments were performed during dose escalation on Day 1 of Cycle 1 and 2 and pre-dose at other time points (pre-dose on Day 8 and Day 15 of Cycle 1 and 2, Day 1 and Day 15 of Cycle 3 and 4 and pre-dose on Cycle 5 and beyond). In the dose expansion phase, samples were collected pre-dose on Day 1 from Cycle 1 to Cycle 8. The PK parameters included maximum plasma concentration (Cmax), time to maximum plasma concentration (Tmax), area under the plasma concentration-time curve from time of administration to the end of the dosing interval (AUC(0-τ)), apparent oral drug clearance during a dosing interval (CLss/F), apparent volume of distribution during a dosing interval (Vz/F) and elimination half-life (t1/2) were evaluated.

[3] = between 400 mg and 800 mg BID, Cycle 1 Day 1
[4] = 200 mg, 200 mg BID, C1D1, geometric mean
[5] = 200 mg, 200 mg BID, C2D1, geometric mean
[6] = 400 mg, 400 mg BID, C1D1, geometric mean
[7] = 400 mg, 400 mg BID, C2D1, geometric mean
[8] = 800 mg, 800 mg BID (fed), C1D1, geometric mean
[9] = 800 mg, 800 mg BID (fed), C2D1, geometric mean
[10] = 800 mg, 800 mg BID, C1D1, geometric mean
[11] = 800 mg, 800 mg BID, C2D1, geometric mean

## CC[C@H](Nc1ncnc2[nH]cnc12)c1oc2ccccc2c(=O)c1-c1cccc(F)c1 [Tenalisib]
[1]
  Efficacy in xenograft model: demonstrated efficacy
[2]; 200 mg BID, C2D1
  λz: 0.4 h⁻¹
[2]; 400 mg BID, C2D1
  λz: 0.4 h⁻¹
[2]; 800 mg BID (fed), C1D1
  λz: 0.3 h⁻¹
[2]; 800 mg BID (fed), C2D1
  λz: 0.3 h⁻¹
[2]; 800 mg BID fasting vs 800 mg BID fed cohort, patients
  Food effect on exposure: not significant
[2]; 800 mg BID, C2D1
  λz: 0.3 h⁻¹
[2]; 800 mg fed and fasting cohorts, patients
  Change in Cmax and AUC's, fed vs fasting: < 20%
[2]; Cycle 1 Day 1
  Dose proportionality of Cmax and AUC(0-τ): increased proportionally with dose
[2]; all cohorts
  Tissue distribution (Vz/F): not highly distributed in tissues
[2]; between 200mg and 400 mg BID, Cycle 1 Day 1
  Fold increase in AUC(0-τ): 1.8 fold
[2]; between 200 mg and 400 mg BID, Cycle 1 Day 1
  Fold increase in Cmax: 1.7 fold
[2]; between 200 mg and 400 mg BID, Cycle 2 Day 1
  Fold increase in Cmax: 1.8 fold
[2]; [3]
  Fold increase in AUC(0-τ): 2.6 fold
  Fold increase in Cmax: 1.8 fold
[2]; between 400 mg and 800 mg BID, Cycle 2 Day 1
  Fold increase in Cmax: 1.1 fold
[2]; between Cycle 1 Day 1 and Cycle 2 Day 1
  Accumulation: no significant accumulation
[2]; [4]
  AUC(0-inf): 3540 ng·h/mL
  Cmax: 1300 ng/mL
  AUC: 3500 ng·h/mL
[2]; 200 mg, 200 mg BID, C1D1, geometric mean, read-out: t1/2 (converted)
  half-life: 1.6 h
[2]; 200 mg, 200 mg BID, C1D1
  Tmax: 1 h
[2]; [5]
  AUC(0-inf): 4020 ng·h/mL
  Cmax: 1650 ng/mL
  AUC: 3970 ng·h/mL
[2]; 200 mg, 200 mg BID, C2D1, geometric mean, read-out: t1/2 (converted)
  half-life: 1.8 h
[2]; 200 mg, 200 mg BID, C2D1
  Tmax: 0.5 h
[2]; [6]
  AUC(0-inf): 6530 ng·h/mL
  Cmax: 2200 ng/mL
  AUC: 6420 ng·h/mL
[2]; 400 mg, 400 mg BID, C1D1, geometric mean, read-out: t1/2 (converted)
  half-life: 1.9 h
[2]; 400 mg, 400 mg BID, C1D1
  Tmax: 0.8 h
[2]; [7]
  AUC(0-inf): 5600 ng·h/mL
  Cmax: 2900 ng/mL
  AUC: 5530 ng·h/mL
[2]; 400 mg, 400 mg BID, C2D1, geometric mean, read-out: t1/2 (converted)
  half-life: 2 h
[2]; 400 mg, 400 mg BID, C2D1
  Tmax: 0.5 h
[2]; [8]
  AUC(0-inf): 14500 ng·h/mL
  Cmax: 2670 ng/mL
  AUC: 13600 ng·h/mL
[2]; 800 mg, 800 mg BID (fed), C1D1, geometric mean, read-out: t1/2 (converted)
  half-life: 2.6 h
[2]; 800 mg, 800 mg BID (fed), C1D1
  Tmax: 2.1 h
[2]; [9]
  AUC(0-inf): 14200 ng·h/mL
  Cmax: 4170 ng/mL
  AUC: 13600 ng·h/mL
[2]; 800 mg, 800 mg BID (fed), C2D1, geometric mean, read-out: t1/2 (converted)
  half-life: 2.8 h
[2]; 800 mg, 800 mg BID (fed), C2D1
  Tmax: 1.1 h
[2]; [10]
  AUC(0-inf): 17400 ng·h/mL
  Cmax: 4000 ng/mL
  AUC: 16400 ng·h/mL
[2]; 800 mg, 800 mg BID, C1D1, geometric mean, read-out: t1/2 (converted)
  half-life: 2.6 h
[2]; 800 mg, 800 mg BID, C1D1
  Tmax: 1.1 h
[2]; [11]
  AUC(0-inf): 17200 ng·h/mL
  Cmax: 3230 ng/mL
  AUC: 16200 ng·h/mL
[2]; 800 mg, 800 mg BID, C2D1, geometric mean, read-out: t1/2 (converted)
  half-life: 2.6 h
[2]; 800 mg, 800 mg BID, C2D1
  Tmax: 2.1 h
[2]; all cohorts, read-out: Median t1/2 (converted)
  half-life: 2.28 h
[2]; all cohorts, read-out: t1/2 range
  half-life: 1.6 to 2.8 h
[2]; 200 mg BID, C1D1
  k el: 0.000111 s⁻¹
[2]; 400 mg BID, C1D1
  k el: 0.000111 s⁻¹
[2]; 800 mg BID, C1D1
  k el: 8.33e-05 s⁻¹
